Experimental data from patent publication US5698529A, “Chemotherapeutic compositions” (Supratek Pharma, Inc., priority 1996, dated 1997).
≈ marks a conversion by molar mass, not a printed value. Read-outs that look alike come from different tables or passages of the source.

Experiments:
SKVO3 cells = assay: cells; type: cell-based; conditions: Homo sapiens
From the text: (§1) The antineoplastic agent vinblastine is incorporated into the block copolymer mixture described in Example 3.
(§2) The antineoplastic agent mitomycin C is incorporated into the block copolymer mixture described in Example 3.
(§3) The antineoplastic agent methotrexate is incorporated into the block copolymer mixture described in Example 3.
(§4) The antineoplastic agent daunorubicin is incorporated into the block copolymer mixture described in Example 3.

SKVLB cells = assay: cells; type: cell-based; conditions: Homo sapiens
From the text: as §1, §2, §3, §4

[1] = SKVO3, drug-sensitive, read-out: IC50

Structure (SMILES)	IC50 (SKVO3 cells; [1]) [µg/mL]	IC50 (SKVLB cells) [µg/mL]	IC50 (SKVO3 cells) [µg/mL]
CN(Cc1cnc2nc(N)nc(N)c2n1)c1ccc(C(=O)N[C@@H](CCC(=O)O)C(=O)O)cc1 [free methotrexate, methotrexate]	1.09 (≈ 2.4 µM)	–	–
CO[C@@]12[C@H](COC(N)=O)C3=C(C(=O)C(C)=C(N)C3=O)N1C[C@@H]1N[C@@H]12 [free mitomycin, mitomycin C]	–	1.12 (≈ 3.35 µM)	0.32 (≈ 0.957 µM)
CC[C@]1(O)C[C@@H]2CN(CCc3c([nH]c4ccccc34)[C@@](C(=O)OC)(c3cc4c(cc3OC)N(C)[C@H]3[C@@](O)(C(=O)OC)[C@H](OC(C)=O)[C@]5(CC)C=CCN6CC[C@]43[C@@H]65)C2)C1 [free vinblastine, vinblastine]	0.095 (≈ 0.117 µM)	0.615 (≈ 0.758 µM)	–
